{"source": "ChEMBL document CHEMBL3885881", "about": "“DrugMatrix”", "species_on_record": "Rattus norvegicus", "assay_type": "toxicity, organism-based, Sprague-Dawley", "details": "in vivo, po, 24 h, route oral GAVAGE, time 1 day, vehicle 100 % WATER; for ABSOLUTE BASOPHIL / ABSOLUTE EOSINOPHIL / ABSOLUTE LYMPHOCYTE / ABSOLUTE MONOCYTE / BASOPHIL / EOSINOPHIL / ERYTHROCYTE COUNT / HEMATOCRIT / HEMOGLOBIN / LEUKOCYTE COUNT / LYMPHOCYTE / MEAN CORPUSCULAR HEMOGLOBIN / MEAN CORPUSCULAR VOLUME / MONOCYTE / NEUTROPHIL / PLATELET COUNT: tissue Blood; for ALANINE AMINOTRANSFERASE / ALBUMIN / ALKALINE PHOSPHATASE / ASPARTATE AMINOTRANSFERASE / BLOOD UREA NITROGEN / CARBON DIOXIDE / CHLORIDE / CHOLESTEROL / CREATINE PHOSPHOKINASE / CREATININE / GLUCOSE / LACTATE DEHYDROGENASE / LIPASE / PHOSPHORUS / POTASSIUM / SODIUM / TOTAL BILIRUBIN / TOTAL PROTEIN / URIC ACID: tissue Plasma", "key": {"[1]": {"details": "0 mg/kg, vehicle control, dose level Control"}}, "description": "DrugMatrix - Regimen: Single"}
{"smiles": "CCOC(=O)N1CCC(=C2c3ccc(Cl)cc3CCc3cccnc32)CC1", "note": "[LORATADINE]", "values": [{"measurement": "ABSOLUTE BASOPHIL", "setting": "[1]", "result": 63.3, "unit": "cells/µL"}, {"measurement": "ABSOLUTE EOSINOPHIL", "setting": "[1]", "result": 66.7, "unit": "cells/µL"}, {"measurement": "ABSOLUTE LYMPHOCYTE", "setting": "[1]", "result": 8010, "unit": "cells/µL"}, {"measurement": "ABSOLUTE MONOCYTE", "setting": "[1]", "result": 240, "unit": "cells/µL"}, {"measurement": "BASOPHIL", "setting": "[1]", "result": 0.6, "unit": "%"}, {"measurement": "EOSINOPHIL", "setting": "[1]", "result": 0.6, "unit": "%"}, {"measurement": "ERYTHROCYTE COUNT", "setting": "[1]", "result": 6.25, "unit": "x10E6/uL"}, {"measurement": "HEMATOCRIT", "setting": "[1]", "result": 40.47, "unit": "%"}, {"measurement": "HEMOGLOBIN", "setting": "[1]", "result": 12.83, "unit": "G/DL"}, {"measurement": "LEUKOCYTE COUNT", "setting": "[1]", "result": 10.19, "unit": "x10E3/uL"}, {"measurement": "LYMPHOCYTE", "setting": "[1]", "result": 78.7, "unit": "%"}, {"measurement": "MEAN CORPUSCULAR HEMOGLOBIN", "setting": "[1]", "result": 20.53, "unit": "pg"}, {"measurement": "MEAN CORPUSCULAR VOLUME", "setting": "[1]", "result": 64.67, "unit": "fL"}, {"measurement": "MONOCYTE", "setting": "[1]", "result": 2.5, "unit": "%"}, {"measurement": "NEUTROPHIL", "setting": "[1]", "result": 17.07, "unit": "%"}, {"measurement": "PLATELET COUNT", "setting": "[1]", "result": 1297, "unit": "x10E3/uL"}, {"measurement": "ALANINE AMINOTRANSFERASE", "setting": "[1]", "result": 32.67, "unit": "u/L"}, {"measurement": "ALBUMIN", "setting": "[1]", "result": 3.9, "unit": "G/DL"}, {"measurement": "ALKALINE PHOSPHATASE", "setting": "[1]", "result": 374, "unit": "u/L"}, {"measurement": "ASPARTATE AMINOTRANSFERASE", "setting": "[1]", "result": 64.33, "unit": "u/L"}, {"measurement": "BLOOD UREA NITROGEN", "setting": "[1]", "result": 14, "unit": "mg/dL"}, {"measurement": "CARBON DIOXIDE", "setting": "[1]", "result": 45.67, "unit": "mmol/L"}, {"measurement": "CHLORIDE", "setting": "[1]", "result": 103, "unit": "MEQ/L"}, {"measurement": "CHOLESTEROL", "setting": "[1]", "result": 82.67, "unit": "mg/dL"}, {"measurement": "CREATINE PHOSPHOKINASE", "setting": "[1]", "result": 216.33, "unit": "u/L"}, {"measurement": "CREATININE", "setting": "[1]", "result": 0.17, "unit": "mg/dL"}, {"measurement": "GLUCOSE", "setting": "[1]", "result": 161.33, "unit": "mg/dL"}, {"measurement": "LACTATE DEHYDROGENASE", "setting": "[1]", "result": 103.67, "unit": "u/L"}, {"measurement": "LIPASE", "setting": "[1]", "result": 8.67, "unit": "u/L"}, {"measurement": "PHOSPHORUS", "setting": "[1]", "result": 11, "unit": "mg/dL"}, {"measurement": "POTASSIUM", "setting": "[1]", "result": 6.83, "unit": "MEQ/L"}, {"measurement": "SODIUM", "setting": "[1]", "result": 144.67, "unit": "MEQ/L"}, {"measurement": "TOTAL BILIRUBIN", "setting": "[1]", "result": 0.27, "unit": "mg/dL"}, {"measurement": "TOTAL PROTEIN", "setting": "[1]", "result": 6.27, "unit": "G/DL"}, {"measurement": "URIC ACID", "setting": "[1]", "result": 0.67, "unit": "mg/dL"}, {"measurement": "ABSOLUTE BASOPHIL", "setting": "2000 mg/kg, dose level High", "result": 63.3, "unit": "cells/µL"}, {"measurement": "ABSOLUTE EOSINOPHIL", "setting": "2000 mg/kg, dose level High", "result": 56.7, "unit": "cells/µL"}, {"measurement": "ABSOLUTE LYMPHOCYTE", "setting": "2000 mg/kg, dose level High", "result": 5990, "unit": "cells/µL"}, {"measurement": "ABSOLUTE MONOCYTE", "setting": "2000 mg/kg, dose level High", "result": 100, "unit": "cells/µL"}, {"measurement": "BASOPHIL", "setting": "2000 mg/kg, dose level High", "result": 0.97, "unit": "%"}, {"measurement": "EOSINOPHIL", "setting": "2000 mg/kg, dose level High", "result": 0.77, "unit": "%"}, {"measurement": "ERYTHROCYTE COUNT", "setting": "2000 mg/kg, dose level High", "result": 7.26, "unit": "x10E6/uL"}, {"measurement": "HEMATOCRIT", "setting": "2000 mg/kg, dose level High", "result": 47.47, "unit": "%"}, {"measurement": "HEMOGLOBIN", "setting": "2000 mg/kg, dose level High", "result": 14.97, "unit": "G/DL"}, {"measurement": "LEUKOCYTE COUNT", "setting": "2000 mg/kg, dose level High", "result": 6.8, "unit": "x10E3/uL"}, {"measurement": "LYMPHOCYTE", "setting": "2000 mg/kg, dose level High", "result": 87.87, "unit": "%"}, {"measurement": "MEAN CORPUSCULAR HEMOGLOBIN", "setting": "2000 mg/kg, dose level High", "result": 20.6, "unit": "pg"}, {"measurement": "MEAN CORPUSCULAR VOLUME", "setting": "2000 mg/kg, dose level High", "result": 65.27, "unit": "fL"}, {"measurement": "MONOCYTE", "setting": "2000 mg/kg, dose level High", "result": 1.5, "unit": "%"}, {"measurement": "NEUTROPHIL", "setting": "2000 mg/kg, dose level High", "result": 8.47, "unit": "%"}, {"measurement": "PLATELET COUNT", "setting": "2000 mg/kg, dose level High", "result": 1455, "unit": "x10E3/uL"}, {"measurement": "ALANINE AMINOTRANSFERASE", "setting": "2000 mg/kg, dose level High", "result": 19.67, "unit": "u/L"}, {"measurement": "ALBUMIN", "setting": "2000 mg/kg, dose level High", "result": 4.17, "unit": "G/DL"}, {"measurement": "ALKALINE PHOSPHATASE", "setting": "2000 mg/kg, dose level High", "result": 348, "unit": "u/L"}, {"measurement": "ASPARTATE AMINOTRANSFERASE", "setting": "2000 mg/kg, dose level High", "result": 59.33, "unit": "u/L"}, {"measurement": "BLOOD UREA NITROGEN", "setting": "2000 mg/kg, dose level High", "result": 11.33, "unit": "mg/dL"}, {"measurement": "CARBON DIOXIDE", "setting": "2000 mg/kg, dose level High", "result": 39.67, "unit": "mmol/L"}, {"measurement": "CHLORIDE", "setting": "2000 mg/kg, dose level High", "result": 104, "unit": "MEQ/L"}, {"measurement": "CHOLESTEROL", "setting": "2000 mg/kg, dose level High", "result": 66.33, "unit": "mg/dL"}, {"measurement": "CREATINE PHOSPHOKINASE", "setting": "2000 mg/kg, dose level High", "result": 336, "unit": "u/L"}, {"measurement": "CREATININE", "setting": "2000 mg/kg, dose level High", "result": 0.3, "unit": "mg/dL"}, {"measurement": "GLUCOSE", "setting": "2000 mg/kg, dose level High", "result": 156, "unit": "mg/dL"}, {"measurement": "LACTATE DEHYDROGENASE", "setting": "2000 mg/kg, dose level High", "result": 112.67, "unit": "u/L"}, {"measurement": "LIPASE", "setting": "2000 mg/kg, dose level High", "result": 8.33, "unit": "u/L"}, {"measurement": "PHOSPHORUS", "setting": "2000 mg/kg, dose level High", "result": 12.4, "unit": "mg/dL"}, {"measurement": "POTASSIUM", "setting": "2000 mg/kg, dose level High", "result": 7.03, "unit": "MEQ/L"}, {"measurement": "SODIUM", "setting": "2000 mg/kg, dose level High", "result": 145.67, "unit": "MEQ/L"}, {"measurement": "TOTAL BILIRUBIN", "setting": "2000 mg/kg, dose level High", "result": 0.3, "unit": "mg/dL"}, {"measurement": "TOTAL PROTEIN", "setting": "2000 mg/kg, dose level High", "result": 6.8, "unit": "G/DL"}, {"measurement": "URIC ACID", "setting": "2000 mg/kg, dose level High", "result": 0.8, "unit": "mg/dL"}]}
